Values of other authors, collected in US6147189A, “Polypeptides that include conformation-constraining groups which flank a protein-protein interaction site” (Virginia Commonwealth University, priority 1997, dated 2000).
Where a SMILES comes first, the peptide text is derived from it.

Test system: receptors of sweet tasting papillae
Conditions: comparison value

SMILES: COC(=O)[C@H](Cc1ccccc1)NC(=O)[C@@H](N)CC(=O)O [aspartame] (H-Asp-Phe-OMe)
- Sweetness compared with sugar: 160 times sweeter than sugar
